The results in this text go back to ChEMBL document CHEMBL1201862, “PubChem BioAssay data set” (2004).

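Cultured in 96-well plates, cells were exposed to test compound for 48 hours across five concentrations. GI50 marks 50% less growth.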 Calls of active or inactive are those of the source. Cut-off read from the data, not from the text of the source: active = GI50 up to about 1.1 µM and inactive = higher.

What all share (experiment): growth of human tumour cells (NCI), 48 h
For assay [1], the system named is UACC-257.
For assay [2], the system named is OVCAR-3.
Assay [3] has as its system M14.
Assay [4] relates to EKVX.
Assay [5] has as its system SNB-75.
Assay [6] relates to SF-539.
The test system of assay [7] is SW-620.
For assay [8], the system named is SF-295.
In assay [9] the test system is SK-MEL-5.
Assay [10] deals with UACC-62.
Assay [11] has as its system SN12C.
Assay [12] relates to NCI-H23.
The test system of assay [13] is OVCAR-5.
Assay [14] has as its system CAKI-1.
For assay [15], the system named is TK-10.
For assay [16], the system named is HL-60.

Consider `O=C(O)CCC(NC(=O)c1ccccc1)C(=O)O` (stereo unspecified), for which the GI50 in assay [1], in assay [2], in assay [3], in assay [4], in assay [5] and in [6] was > 100 µM (inactive) in each case. The GI50 in assay [7] was 42.3 µM (inactive); in assay [8], > 100 µM (inactive); in assay [9] it was > 100 µM (inactive); in assay [10], > 100 µM (inactive); in [11], > 100 µM (inactive); in assay [12] it was > 100 µM (inactive). The GI50 in [13], in assay [14] and in [15] was > 100 µM (inactive) each time.

Take `Cn1c2cccc3nnc4cccc(c4c32)n1C`: the GI50 in [1], in assay [2], in [3], in assay [4], in assay [6] and in assay [16] was > 100 µM (inactive) throughout. The GI50 in [7], in assay [8], in [9], in assay [10], in assay [11] and in [13] was > 100 µM (inactive) throughout. Also, in assay [14], the GI50 was 21.2 µM (inactive).

Turning to `ON1CCc2c([nH]c3ccccc23)C1c1ccc(Cl)cc1` (stereo unspecified), the GI50 in assay [1] is 30.1 µM (inactive); in [2], 27.4 µM (inactive); in [3], 42.7 µM (inactive); in assay [4] it was 35.8 µM (inactive); in assay [5], 30.3 µM (inactive); in [6] it was 30.5 µM (inactive). The GI50 in assay [16] was 25.9 µM (inactive); in assay [7], 33.2 µM (inactive); in assay [8] it was 27.7 µM (inactive); in assay [10], 31 µM (inactive); in [11], 26.1 µM (inactive); in assay [12], 21.9 µM (inactive). Moreover, the GI50 in [13] was 31.3 µM (inactive); in assay [15], 43.9 µM (inactive).

As to `CN(C)CCC(/C=C/c1ccccc1)=N\Nc1ccccc1`, the GI50 in assay [1] is 2.42 µM (inactive); in assay [2], 2.33 µM (inactive); in assay [3], 2.72 µM (inactive); in assay [4] it was 2.07 µM (inactive); in [5] it was 3.48 µM (inactive); in assay [6], 1.82 µM (inactive). Further, the GI50 in assay [16] is 0.564 µM (active); in assay [7], 0.335 µM (active); in assay [8], 0.451 µM (active); in assay [9] it was 3.48 µM (inactive); in assay [10], 0.617 µM (active); in [11] it was 2.74 µM (inactive). The results for the GI50 in [12], in [13] and in assay [15] were 3.97 µM (inactive), 1.98 µM (inactive) and 1.6 µM (inactive), respectively.

Take `CCOC(=O)c1cnc2c(ccc3ncccc32)c1NCCCN(CC)CC`: the GI50 in assay [1] is > 100 µM (inactive); in [2] it was > 100 µM (inactive); in [3], 19.1 µM (inactive); in [4], > 100 µM (inactive); in [6], > 10 µM (inactive); in [16], 14.6 µM (inactive). In addition, the GI50 in assay [7] is 41.9 µM (inactive); in [8], 86.7 µM (inactive); in assay [9], > 100 µM (inactive); in [10], > 100 µM (inactive); in assay [12], 87.9 µM (inactive); in assay [13] it was > 100 µM (inactive). In addition, the GI50 in [14] and in [15] was > 100 µM (inactive) in each case.

In the case of `O=c1c2ccc3cccc4c(=O)cc(c5ccccc15)-c2c34`, the GI50 was > 100 µM (inactive) in assay [1]; 28.2 µM (inactive) in assay [2]; > 100 µM (inactive) in [3]; > 100 µM (inactive) in [4]; > 100 µM (inactive) in assay [5]; 43.9 µM (inactive) in assay [16]. The GI50 in [7] was > 100 µM (inactive); in assay [8], > 100 µM (inactive); in [9], 57.4 µM (inactive); in assay [10], > 100 µM (inactive); in assay [11] it was > 100 µM (inactive); in [12], 31.7 µM (inactive). Also, the GI50 in assay [13], in assay [14] and in assay [15] was > 100 µM (inactive) in each case.

Turning to `COc1cc(C)c2c(c1)CN1CN2Cc2cc(OC)cc(C)c21`, the GI50 was 25.5 µM (inactive) in assay [2]; > 100 µM (inactive) in assay [3]; 32.7 µM (inactive) in assay [4]; 11.2 µM (inactive) in [5]; > 100 µM (inactive) in assay [6]; 21.4 µM (inactive) in [16]. Besides, the GI50 was > 100 µM (inactive) in assay [7]; 52.4 µM (inactive) in assay [8]; 3.66 µM (inactive) in [9]; 29.9 µM (inactive) in assay [10]; 46.3 µM (inactive) in [11]; 45.8 µM (inactive) in assay [12]. The GI50 in [13] was 27.9 µM (inactive); in assay [14] it was > 100 µM (inactive).

`Cc1ccc(C)c(N2C/C(=N\NC(=O)CC#N)C(c3nc4ccccc4s3)C(=O)C2=O)c1` (stereo unspecified): the GI50 in assay [1], in assay [2], in assay [3], in assay [4], in assay [5] and in assay [16] was > 100 µM (inactive) each time. Also, the GI50 in assay [7], in assay [8], in [9], in assay [10], in assay [11] and in assay [12] was > 100 µM (inactive) in each case. In addition, the GI50 in assay [14] and in assay [15] was > 100 µM (inactive) each time.

Take `COc1ccc([C@@]2(O)c3c(ccc(O)c3OC)[C@H]2OC)c(OC)c1`: the GI50 in assay [1] is > 100 µM (inactive); in assay [2], 68.2 µM (inactive); in assay [3], > 100 µM (inactive); in assay [4], > 100 µM (inactive); in assay [5], 39.6 µM (inactive); in assay [16], 31.6 µM (inactive). The GI50 in assay [7] is 46.6 µM (inactive); in [8], 29.2 µM (inactive); in assay [9], 48.6 µM (inactive); in assay [10], > 10 µM (inactive); in [11], 71.8 µM (inactive); in assay [12], 34.6 µM (inactive). For the same molecule, the GI50 in assay [13] is > 100 µM (inactive); in assay [14], 35.7 µM (inactive); in assay [15], 27.1 µM (inactive).

`NC(=O)N/N=C/C(=C/Nc1ccccc1)[N+](=O)[O-]`: the GI50 in assay [1], in assay [2], in assay [3], in [4], in assay [16] and in [7] was > 100 µM (inactive) in each case. For the same molecule, the GI50 in assay [8], in assay [9], in assay [10], in [11], in [12] and in [15] was > 100 µM (inactive) throughout.

As to `CN/C=C(\C(=O)c1ccc(OC)c(OC)c1)c1ccc(OC)cc1`, the GI50 in assay [1] is 10.7 µM (inactive); in assay [3], 18.7 µM (inactive); in assay [4], 27.4 µM (inactive); in [5] it was 30.1 µM (inactive); in assay [6] it was 1.25 µM (inactive); in assay [16], 11.3 µM (inactive). The GI50 was 17.3 µM (inactive) in assay [7]; 40.1 µM (inactive) in assay [8]; 17.4 µM (inactive) in assay [9]; 16.4 µM (inactive) in [10]; 15.3 µM (inactive) in assay [11]; 30.3 µM (inactive) in assay [12]. In addition, in assay [15], the GI50 is 17 µM (inactive).

For `O=C(NC1C2CC3CC(C2)CC1C3)c1ccncn1` (stereo unspecified), the GI50 in assay [1], in [2], in [3], in [4], in assay [5] and in [6] was > 100 µM (inactive) throughout. The GI50 in assay [16], in [7], in [8], in assay [9], in [10] and in assay [11] was > 100 µM (inactive) each time. Also, the GI50 in [12], in [13] and in [14] was > 100 µM (inactive) in each case.

As to `N#CCc1cccc(CC#N)c1Br`, the GI50 in assay [1], in assay [2], in [3], in assay [4], in assay [5] and in [6] was > 100 µM (inactive) in each case. The GI50 in assay [16], in [7], in [8], in [10], in assay [11] and in [12] was > 100 µM (inactive) throughout. In addition, the GI50 in assay [13] and in [14] was > 100 µM (inactive) in each case.

In the case of `C[C@@H](CC(O)C1OC1(C)C)[C@@H]1CC[C@]2(C)C3=CCC4C(C)(C)C(O)CC[C@]4(C)C3CCC12C` (stereo partly specified), the GI50 in [1] is 16.3 µM (inactive); in [2] it was 34.7 µM (inactive); in assay [3], 13.9 µM (inactive); in assay [4] it was 39.6 µM (inactive); in assay [6] it was 17.9 µM (inactive); in assay [16] it was 4.14 µM (inactive). The GI50 in [7] was 38.9 µM (inactive); in assay [8] it was 13.7 µM (inactive); in [10], 14.8 µM (inactive); in assay [11] it was 42.2 µM (inactive); in assay [12] it was 19.1 µM (inactive); in assay [13], 38 µM (inactive). Besides, the GI50 in assay [15] is 20.3 µM (inactive).
